This is an account of results in PubChem BioAssay AID248 (DTP/NCI, 2004).

The experiment has as its system L1210 leukemia ip in BDF1 mice, survival T/C. In words: NCI In Vivo Anticancer Drug Screen. Data for tumor model L1210 Leukemia (intraperitoneal) in B6D2F1 (BDF1) mice. The note with it: higher = longer survival. The gist of the method: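 Tumor cells were implanted, animals were treated, and survival was followed. The result divides the treated measurement by the vehicle-control measurement.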

[1] abbreviates: endpoint: mean survival time, dose: 100.0 mg/kg/injection, schedule: Q04DX003 (ip), vehicle: saline.
[2] abbreviates: endpoint: mean survival time, dose: 200.0 mg/kg/injection, schedule: Q04DX003 (ip), vehicle: saline.
Where [3] appears, read: endpoint: mean survival time, dose: 400.0 mg/kg/injection, schedule: Q04DX003 (ip), vehicle: saline.

Molecules are shown by their SMILES. Values joined by “and” are separate entries in the source; they are usually repeats but may differ in a detail not shown here. Equal entries are not always repeated. Inconclusive results and toxic doses are left out.

On to `COc1cc([C@@H]2c3cc4c(cc3[C@@H](OC3OC5CO[C@@H](c6cccs6)OC5C(O)C3O)[C@H]3COC(=O)[C@H]23)OCO4)cc(OC)c1O` (some centres not stated), for which the T/C (endpoint: mean survival time, dose: 0.5 mg/kg/injection, schedule: Q03HX024 (ip), vehicle: other) is 109 % of control; the T/C (endpoint: mean survival time, dose: 1.0 mg/kg/injection, schedule: Q01DX009 (ip), vehicle: other) is 111 % of control; the T/C (endpoint: mean survival time, dose: 1.0 mg/kg/injection, schedule: Q03HX008 (ip), vehicle: other) is 122 % of control; the T/C (endpoint: mean survival time, dose: 1.0 mg/kg/injection, schedule: Q03HX016 (ip), vehicle: other) is 111 % of control; the T/C (endpoint: mean survival time, dose: 1.0 mg/kg/injection, schedule: Q03HX024 (ip), vehicle: other) is 118 % of control; the T/C (endpoint: mean survival time, dose: 2.0 mg/kg/injection, schedule: Q01DX009 (oral), vehicle: other) was 104 % of control. In addition, the T/C is, setting by setting: (endpoint: mean survival time, dose: 2.0 mg/kg/injection, schedule: Q03HX008 (oral), vehicle: other) 90 % of control; (endpoint: mean survival time, dose: 2.0 mg/kg/injection, schedule: Q04DX003 (ip), vehicle: water) 194 % of control; (endpoint: mean survival time, dose: 2.0 mg/kg/injection, schedule: Q08DX002 (ip), vehicle: water) 156 % of control; (endpoint: mean survival time, dose: 4.0 mg/kg/injection, schedule: Q01DX001 (ip), vehicle: water) 157 % of control; (endpoint: mean survival time, dose: 4.0 mg/kg/injection, schedule: Q01DX009 (oral), vehicle: other) 101 % of control; (endpoint: mean survival time, dose: 4.0 mg/kg/injection, schedule: Q03HX008 (oral), vehicle: other) 98 % of control. Also, the T/C by setting is: (endpoint: mean survival time, dose: 4.0 mg/kg/injection, schedule: Q04DX003 (ip), vehicle: other) 110 % of control; (endpoint: mean survival time, dose: 4.0 mg/kg/injection, schedule: Q04DX003 (ip), vehicle: water) 241 % of control; (endpoint: mean survival time, dose: 4.0 mg/kg/injection, schedule: Q08DX002 (ip), vehicle: water) 172 % of control; (endpoint: mean survival time, dose: 8.0 mg/kg/injection, schedule: Q01DX001 (ip), vehicle: water) 162 % of control; (endpoint: mean survival time, dose: 8.0 mg/kg/injection, schedule: Q01DX009 (oral), vehicle: other) 105 % of control; (endpoint: mean survival time, dose: 8.0 mg/kg/injection, schedule: Q03HX008 (oral), vehicle: other) 100 % of control. For the same compound, the T/C was 186 % of control (endpoint: mean survival time, dose: 8.0 mg/kg/injection, schedule: Q03HX016 (ip), vehicle: other); 95 % of control (endpoint: mean survival time, dose: 8.0 mg/kg/injection, schedule: Q03HX016 (oral), vehicle: other); 98 % of control (endpoint: mean survival time, dose: 8.0 mg/kg/injection, schedule: Q03HX024 (oral), vehicle: other); 426 % of control (endpoint: mean survival time, dose: 8.0 mg/kg/injection, schedule: Q04DX003 (ip), vehicle: water); 97 % of control (endpoint: mean survival time, dose: 8.0 mg/kg/injection, schedule: Q04DX003 (oral), vehicle: other); 109 % of control (endpoint: mean survival time, dose: 8.0 mg/kg/injection, schedule: Q08DX002 (ip), vehicle: other). Moreover, the T/C was 300 % of control (endpoint: mean survival time, dose: 8.0 mg/kg/injection, schedule: Q08DX002 (ip), vehicle: water); 439 % of control (endpoint: mean survival time, dose: 16.0 mg/kg/injection, schedule: Q01DX001 (ip), vehicle: water); 111 % of control (endpoint: mean survival time, dose: 16.0 mg/kg/injection, schedule: Q01DX001 (oral), vehicle: other); 103 % of control (endpoint: mean survival time, dose: 16.0 mg/kg/injection, schedule: Q01DX009 (oral), vehicle: other); 95 % of control (endpoint: mean survival time, dose: 16.0 mg/kg/injection, schedule: Q03HX008 (oral), vehicle: other); 94 % of control and 95 % of control (endpoint: mean survival time, dose: 16.0 mg/kg/injection, schedule: Q03HX016 (oral), vehicle: other). Besides, the T/C reads like this: (endpoint: mean survival time, dose: 16.0 mg/kg/injection, schedule: Q03HX024 (oral), vehicle: other) 93 % of control; (endpoint: mean survival time, dose: 16.0 mg/kg/injection, schedule: Q04DX003 (ip), vehicle: water) 172 % of control; (endpoint: mean survival time, dose: 16.0 mg/kg/injection, schedule: Q04DX003 (oral), vehicle: other) 106 % of control; (endpoint: mean survival time, dose: 16.0 mg/kg/injection, schedule: Q08DX002 (ip), vehicle: other) 122 % of control; (endpoint: mean survival time, dose: 16.0 mg/kg/injection, schedule: Q08DX002 (ip), vehicle: water) 423 % of control; (endpoint: mean survival time, dose: 16.0 mg/kg/injection, schedule: Q08DX002 (oral), vehicle: other) 102 % of control. The T/C (endpoint: mean survival time, dose: 32.0 mg/kg/injection, schedule: Q01DX001 (ip), vehicle: water) is 242 % of control; the T/C (endpoint: mean survival time, dose: 32.0 mg/kg/injection, schedule: Q01DX001 (oral), vehicle: other) was 161 % of control; the T/C (endpoint: mean survival time, dose: 32.0 mg/kg/injection, schedule: Q03HX016 (oral), vehicle: other) is 98 % of control; the T/C (endpoint: mean survival time, dose: 32.0 mg/kg/injection, schedule: Q03HX024 (oral), vehicle: other) was 94 % of control; the T/C (endpoint: mean survival time, dose: 32.0 mg/kg/injection, schedule: Q04DX003 (ip), vehicle: water) was 103 % of control; the T/C (endpoint: mean survival time, dose: 32.0 mg/kg/injection, schedule: Q04DX003 (oral), vehicle: other) is 100 % of control. Moreover, the T/C runs as follows: (endpoint: mean survival time, dose: 32.0 mg/kg/injection, schedule: Q08DX002 (ip), vehicle: water) 163 % of control; (endpoint: mean survival time, dose: 32.0 mg/kg/injection, schedule: Q08DX002 (oral), vehicle: other) 100 % of control; (endpoint: mean survival time, dose: 64.0 mg/kg/injection, schedule: Q01DX001 (ip), vehicle: other) 188 % of control; (endpoint: mean survival time, dose: 64.0 mg/kg/injection, schedule: Q01DX001 (oral), vehicle: other) 98 % of control; (endpoint: mean survival time, dose: 64.0 mg/kg/injection, schedule: Q03HX024 (oral), vehicle: other) 92 % of control; (endpoint: mean survival time, dose: 64.0 mg/kg/injection, schedule: Q04DX003 (oral), vehicle: other) 97 % of control. The T/C is 190 % of control (endpoint: mean survival time, dose: 64.0 mg/kg/injection, schedule: Q08DX002 (ip), vehicle: other); 96 % of control (endpoint: mean survival time, dose: 64.0 mg/kg/injection, schedule: Q08DX002 (oral), vehicle: other); 101 % of control (endpoint: mean survival time, dose: 128.0 mg/kg/injection, schedule: Q01DX001 (oral), vehicle: other); 94 % of control (endpoint: mean survival time, dose: 128.0 mg/kg/injection, schedule: Q03HX024 (oral), vehicle: other); 96 % of control (endpoint: mean survival time, dose: 128.0 mg/kg/injection, schedule: Q04DX003 (oral), vehicle: other); 98 % of control (endpoint: mean survival time, dose: 128.0 mg/kg/injection, schedule: Q08DX002 (oral), vehicle: other). The T/C is 224 % of control (endpoint: mean survival time, dose: 600.0 mg/kg/injection, schedule: Q01DX009 (ip), vehicle: steriod suspending solution); 246 % of control (endpoint: mean survival time, dose: 800.0 mg/kg/injection, schedule: Q01DX009 (ip), vehicle: steriod suspending solution); 169 % of control (endpoint: mean survival time, dose: 1000.0 mg/kg/injection, schedule: Q01DX009 (ip), vehicle: steriod suspending solution); 194 % of control (endpoint: median survival time, dose: 1.0 mg/kg/injection, schedule: Q01DX009 (ip), vehicle: saline); 116 % of control (endpoint: median survival time, dose: 2.0 mg/kg/injection, schedule: Q01DX009 (ip), vehicle: saline); 88 % of control (endpoint: median survival time, dose: 4.0 mg/kg/injection, schedule: Q01DX009 (ip), vehicle: saline).

As for `NN(C(=O)c1ccccc1)c1ccccc1`, the T/C runs as follows: (endpoint: mean survival time, dose: 75.0 mg/kg/injection, schedule: Q01DX001 (ip), vehicle: carboxymethylcellulose (CMC)) 93 % of control; (endpoint: mean survival time, dose: 150.0 mg/kg/injection, schedule: Q01DX001 (ip), vehicle: carboxymethylcellulose (CMC)) 98 % of control; (endpoint: mean survival time, dose: 300.0 mg/kg/injection, schedule: Q01DX001 (ip), vehicle: carboxymethylcellulose (CMC)) 95 % of control.

For `Cc1cc(N)on1`, the T/C reads like this: (endpoint: mean survival time, dose: 100.0 mg/kg/injection, schedule: Q01DX009 (ip), vehicle: saline) 97 % of control; under setting [1], 96 % of control; (endpoint: mean survival time, dose: 200.0 mg/kg/injection, schedule: Q01DX009 (ip), vehicle: saline) 106 % of control; under setting [2], 101 % of control; (endpoint: mean survival time, dose: 400.0 mg/kg/injection, schedule: Q01DX009 (ip), vehicle: saline) 88 % of control; under setting [3], 123 % of control.

As to `COc1cccc(C(C)(C)CC(=O)O)c1`, the T/C runs as follows: (endpoint: mean survival time, dose: 50.0 mg/kg/injection, schedule: Q01DX009 (ip), vehicle: saline with Tween-80) 90 % of control; (endpoint: mean survival time, dose: 100.0 mg/kg/injection, schedule: Q01DX009 (ip), vehicle: saline with Tween-80) 90 % of control; (endpoint: mean survival time, dose: 200.0 mg/kg/injection, schedule: Q01DX009 (ip), vehicle: saline with Tween-80) 87 % of control.

With `CC(=O)NC(C(=O)O)C(C)C(=O)O` (configuration not stated), the T/C under setting [1] is 90 % of control, the T/C under setting [2] was 93 % of control and the T/C under setting [3] is 92 % of control.

Turning to `CN(CC#N)CC#N`, the T/C (endpoint: mean survival time, dose: 25.0 mg/kg/injection, schedule: Q01DX009 (ip), vehicle: saline) is 105 % of control and the T/C (endpoint: mean survival time, dose: 50.0 mg/kg/injection, schedule: Q01DX009 (ip), vehicle: saline) is 95 % of control.
